From US11389415B2, “Methods of regulating cannabinoid receptor activity-related disorders and diseases” (The United States of America as represented by the …, priority 2012, dated 2022)
Where two headings read alike, the source gives them in different places.

Experiments:
U87 = experiment: tumor cell growth, U87; details: Homo sapiens, U-87 MG, read-out: IC50 (uM), U87 (CNS)
MCF7 = experiment: tumor cell growth, MCF7; details: Homo sapiens, MCF7, read-out: IC50 (uM), MCF7 (Breast C)
A549 = experiment: tumor cell growth, A549; details: Homo sapiens, A549, read-out: IC50 (uM), A549 (NSCLC)
U251 = experiment: tumor cell growth, U251; details: Homo sapiens, U-251, read-out: IC50 (uM), U251 (CNS)
A172 = experiment: tumor cell growth, A172; details: Homo sapiens, A 172, read-out: IC50 (uM), A172 (CNS)
U118 = experiment: tumor cell growth, U118; details: read-out: IC50 (uM), U118 (CNS)
HEPG2 = experiment: tumor cell growth, HEPG2; details: Homo sapiens, HepG2, read-out: IC50 (uM), HEPG2 (Liver C)
GL261 = experiment: tumor cell growth, GL261; details: Mus musculus, GL261, read-out: IC50 (uM), GL261 (CNS)
LN-18 = experiment: tumor cell growth, LN-18; details: Homo sapiens, LN-18, read-out: IC50 (uM), LN-18 (CNS)
PANC-1 = experiment: tumor cell growth, PANC-1; details: Homo sapiens, PANC-1, read-out: IC50 (uM), PANC-1 (Pancreatic C)
Du-145 = experiment: tumor cell growth, Du-145; details: Homo sapiens, DU-145, read-out: IC50 (uM), Du-145 (Prostate C)
MDAMB231 = experiment: tumor cell growth, MDAMB231; details: Homo sapiens, MDA-MB-231, read-out: IC50 (uM), MDAMB231 (Breast C)
PC3 [1] = experiment: tumor cell growth (CTG), PC3; details: Homo sapiens
HT29 [2] = experiment: tumor cell growth (CTG), HT29; details: Homo sapiens
HT29 [3] = experiment: Thymidine (Thy) 96 well, HT29; details: Homo sapiens, read-out: IC50 (uM), HT29 (Colon Cancer)
HEP3B [4] = experiment: tumor cell growth (CTG), HEP3B; details: Homo sapiens, Hep3B
HCT116 [5] = experiment: tumor cell growth (CTG), HCT116; details: Homo sapiens
HCT116 [6] = experiment: Thymidine (Thy) 96 well, HCT116; details: Homo sapiens, read-out: IC50 (uM), HCT116 (Colon Cancer)
NCIH460 = experiment: Thymidine (Thy) 96 well, NCIH460; details: Homo sapiens, read-out: IC50 (uM), NCIH460 (NSCLC)
H460 = experiment: tumor cell growth (CTG), H460 / NCIH460; details: Homo sapiens
LN-229 = experiment: tumor cell growth (CTG), LN-229 / LN229; details: Homo sapiens
PC3 [7] = experiment: [3H]-Thymidine incorporation in 96-well plates (Thy), PC3; details: Homo sapiens, read-out: IC50 (uM), PC3 (Prostrate Cancer)
HEP3B [8] = experiment: [3H]-Thymidine incorporation in 96-well plates (Thy), HEP3B; details: Homo sapiens, Hep3B, read-out: IC50 (uM), HEP3B (Liver Cancer)
LN229 = experiment: [3H]-Thymidine incorporation in 96-well plates (Thy), LN229; details: Homo sapiens, read-out: IC50 (uM), LN229 (CNS Cancer)

SMILES: COc1cccc2c1C(=O)c1c(O)c3c(c(O)c1C2=O)C[C@@](O)(C(=O)CO)C[C@@H]3O[C@H]1C[C@H](N)[C@H](O)[C@H](C)O1 [Doxorubicin, reference compound]
- IC50 (U87): 0.21 µM
- IC50 (MCF7): 0.3 µM
- IC50 (A549): 0.11 µM
- IC50 (U251): 0.17 µM
- IC50 (A172): 0.46 µM
- IC50 (U118): 0.81 µM
- IC50 (HEPG2): 0.28 µM
- IC50 (GL261): 0.17 µM
- IC50 (LN-18): 0.53 µM
- IC50 (PANC-1): 2.97 µM
- IC50 (Du-145): 0.38 µM
- IC50 (MDAMB231): 0.68 µM
- IC50 (PC3 [1]; PC-3, 24 h, read-out: IC50 (uM), PC3 (Prostrate Cancer)): 3.02 µM
- IC50 (PC3 [1]; PC-3, 48 h, read-out: IC50 (uM), PC3 (Prostrate Cancer)): 0.93 µM
- IC50 (PC3 [1]; PC-3, 72 h, read-out: IC50 (uM), PC3 (Prostrate Cancer)): 0.91 µM
- IC50 (PC3 [1]; PC-3, read-out: IC50 (uM), PC3 (Prostate C)): 0.91 µM
- IC50 (HT29 [2]; HT-29, 48 h, read-out: IC50 (uM), HT29 (Colon Cancer)): 0.52 µM
- IC50 (HT29 [2]; HT-29, 72 h, read-out: IC50 (uM), HT29 (Colon Cancer)): 0.26 µM
- IC50 (HT29 [2]; HT-29, read-out: IC50 (uM), HT29 (Colon C)): 0.26 µM
- IC50 (HT29 [3]; HT-29, 24 h): 0.11 µM
- IC50 (HT29 [3]; HT-29, 48 h): 0.12 µM
- IC50 (HEP3B [4]; 48 h, read-out: IC50 (uM), HEP3B (Liver Cancer), 96 well CTG 2 days treatment): 0.52 µM
- IC50 (HEP3B [4]; 72 h, read-out: IC50 (uM), HEP3B (Liver Cancer), 384well CTG 3 days treatment −1): 0.43 µM
- IC50 (HEP3B [4]; 72 h, read-out: IC50 (uM), HEP3B (Liver Cancer), 384well CTG 3 days treatment −2): 0.35 µM
- IC50 (HEP3B [4]; read-out: IC50 (uM), HEP3B (Liver C), Table 6): 0.43 µM
- IC50 (HCT116 [5]; HCT-116, 24 h, read-out: IC50 (uM), HCT116 (Colon Cancer), 96 well CTG 1 day treatment): 0.21 µM
- IC50 (HCT116 [5]; HCT-116, 48 h, read-out: IC50 (uM), HCT116 (Colon Cancer), 96 well CTG 2 days treatment): 0.23 µM
- IC50 (HCT116 [5]; HCT-116, 72 h, read-out: IC50 (uM), HCT116 (Colon Cancer), 384well CTG 3 days treatment −1): 0.06 µM
- IC50 (HCT116 [5]; HCT-116, 72 h, read-out: IC50 (uM), HCT116 (Colon Cancer), 384well CTG 3 days treatment −2): 0.21 µM
- IC50 (HCT116 [5]; HCT-116, read-out: IC50 (uM), HCT116 (Colon C), Table 6): 0.06 µM
- IC50 (HCT116 [6]; HCT-116, 24 h): 0.12 µM
- IC50 (HCT116 [6]; HCT-116, 48 h): 0.14 µM
- IC50 (NCIH460; NCI-H460, 24 h): 0.09 µM
- IC50 (NCIH460; NCI-H460, 48 h): 0.03 µM
- IC50 (H460; NCI-H460, 24 h, read-out: IC50 (uM), NCIH460 (NSCLC), 96 well CTG 1 day treatment): 0.31 µM
- IC50 (H460; NCI-H460, 48 h, read-out: IC50 (uM), NCIH460 (NSCLC), 96 well CTG 2 days treatment): 0.12 µM
- IC50 (H460; NCI-H460, 72 h, read-out: IC50 (uM), NCIH460 (NSCLC), 384well CTG 3 days treatment −1): 0.02 µM
- IC50 (H460; NCI-H460, 72 h, read-out: IC50 (uM), NCIH460 (NSCLC), 384well CTG 3 days treatment −2): 0.11 µM
- IC50 (H460; NCI-H460, read-out: IC50 (uM), H460 (NSCLC), Table 6): 0.02 µM
- IC50 (LN-229; LN-229, 48 h, read-out: IC50 (uM), LN229 (CNS Cancer)): 1.7 µM
- IC50 (LN-229; LN-229, 72 h, read-out: IC50 (uM), LN229 (CNS Cancer)): 0.61 µM
- IC50 (LN-229; LN-229, read-out: IC50 (uM), LN-229 (CNS)): 0.61 µM
- IC50 (PC3 [7]; PC-3, 24 h): 0.04 µM
- IC50 (PC3 [7]; PC-3, 48 h): 0.28 µM
- IC50 (HEP3B [8]; 24 h): 0.04 µM
- IC50 (HEP3B [8]; 48 h): 0.02 µM
- IC50 (LN229; LN-229, 24 h): 0.1 µM
- IC50 (LN229; LN-229, 48 h): 0.07 µM
